According to patent US20250129122A1, “PEPTIDE, AND CELL FUSION AGENT AND PHARMACEUTICAL COMPOSITION FOR CANCER THERAPY CONTAINING SAID PEPTIDE” (priority 2021, published 2025):

Columns and labels:
[1] = system: A549 cells (human alveolar epithelial adenocarcinoma cells); assay: In vivo anticancer effect on A549 tumor transplanted in nude mice; set-up: species or system mouse; settings: A549 subcutaneous, 18.75 mg/kg or 37.5 mg/kg intravenously two times/week during 5 weeks, autopsy 35 days after implantation
Procedure: In this example, the anticancer effect of peptide 16 on A549 cells (human alveolar epithelial adenocarcinoma cells) was examined in vivo.
CAnN.Cg-Foxn1nu/CrlCrlj nude mice were divided into groups of 6 animals each. A549 cells were suspended in PBS at a concentration of 1×10^8 cells/mL and 0.1 mL thereof were transplanted subcutaneously to the right ventral part thereof. The peptide 16 was administered intravenously from the tail vein at a dose of 18.75 mg/kg or 37.5 mg/kg (peptide 16 group-1, or peptide 16 group-2) on two times/week during 5 weeks after tumor transplantation. Control group was administered PBS only.
Autopsy was performed 35 days after tumor implantation, and the tumor was removed. FIGS. 13A (×100) and B (×400) are the photographs of tumor masses of A549 cells treated with peptide 16, and FIGS. 13C (×100) and D (×400) are the controls.

[2] = system: HVJ virus (Sendai virus); assay: Virus envelope fusion, electron micrograph
Excerpt: In this example, peptide 16 was applied to the HVJ virus (Sendai virus), and its ability to fuse with the virus was examined.

[3] = system: RM4 cells; assay: Apoptosis induction, Caspase-3/7 activity (IncuCyte S3 live cell analysis); format: cell-based; settings: 0.06 μg/mL, scanned every hour for 3 days, untreated control did not increase
Procedure: (§1) In this Example, the apoptosis ability of peptide 16 was examined using the […] and RM4 cells. An activity of Caspase-3/7 which are indications of apoptosis, was measured using IncuCyte S3 live cell analysis system (Essen BioScience).
(§2) The activity of Caspase-3/7 activity is measured using an inert non-fluorescent (DEVD) substrate that can penetrate the cell membrane. An activated Caspase-3/7 cleaves the substrate, and thereby a DNA-bound green fluorescent label is released. The activity of Caspase-3/7 is measured by the intensity of green fluorescence.
(§3) RFL cells or RM4 cells were seeded on 96-well plates and 0.06 μg/mL of peptide 16 was added thereto. Caspase-3/7 Green Reagent (Unit size: 20 ul, 5 mM/vial) was diluted 500-fold with Ham's F-12K and added thereto.
(§4) They were measured using the IncuCyte S3 live cell analysis system, by continuously scanning every hour for 3 days with an objective lens of magnification of 10 times and 4 fields of view. As a control, RFL cells or RM-4 cells which were not treated with peptide 16, were used.

[4] = system: RFL cells; assay: as above; format: cell-based, rat; settings: 0.06 μg/mL, scanned every hour for 3 days, untreated control did not increase
Procedure: as §1, §2, §3, §4

CH3-Pro-Ile-Val-Ser-Thr-Gln-Thr-Ala-Leu-Ala-miniPEG-D-Lys-D-Lys-D-Lys-NH2 [peptide 16]
antitumor effect, HE-stained excised tumor [1]: the inside of the tumor is necrotic
fusion of the virus envelope [2]: Fusion of the envelope of the HVJ virus was observed
activity of Caspase-3/7 [3]: the activity increased rapidly between 10 and 20 hours
activity of Caspase-3/7 [4]: the activity increased rapidly between 10 and 20 hours
